Assays:
NLRP3 = NLRP3 (Mus musculus, UniProt Q8R4B8); assay: DARTS; format: cell-based
[1] = target: NOD-like receptor protein 3 (NLRP3) (Homo sapiens, UniProt Q96P20); assay: SPR; format: binding
Chain of NOD-like receptor protein 3 (NLRP3) (Q96P20 220-536 limits assumed): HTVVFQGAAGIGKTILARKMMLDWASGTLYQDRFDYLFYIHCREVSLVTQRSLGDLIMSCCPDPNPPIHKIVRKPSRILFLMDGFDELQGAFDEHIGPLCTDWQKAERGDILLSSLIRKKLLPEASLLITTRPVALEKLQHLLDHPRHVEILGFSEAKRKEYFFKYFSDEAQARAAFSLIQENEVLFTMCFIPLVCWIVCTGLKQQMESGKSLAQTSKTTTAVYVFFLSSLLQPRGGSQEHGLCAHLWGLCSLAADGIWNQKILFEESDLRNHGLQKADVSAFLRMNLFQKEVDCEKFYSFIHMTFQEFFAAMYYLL

Chain of NLRP3 (Q8R4B8 whole entry): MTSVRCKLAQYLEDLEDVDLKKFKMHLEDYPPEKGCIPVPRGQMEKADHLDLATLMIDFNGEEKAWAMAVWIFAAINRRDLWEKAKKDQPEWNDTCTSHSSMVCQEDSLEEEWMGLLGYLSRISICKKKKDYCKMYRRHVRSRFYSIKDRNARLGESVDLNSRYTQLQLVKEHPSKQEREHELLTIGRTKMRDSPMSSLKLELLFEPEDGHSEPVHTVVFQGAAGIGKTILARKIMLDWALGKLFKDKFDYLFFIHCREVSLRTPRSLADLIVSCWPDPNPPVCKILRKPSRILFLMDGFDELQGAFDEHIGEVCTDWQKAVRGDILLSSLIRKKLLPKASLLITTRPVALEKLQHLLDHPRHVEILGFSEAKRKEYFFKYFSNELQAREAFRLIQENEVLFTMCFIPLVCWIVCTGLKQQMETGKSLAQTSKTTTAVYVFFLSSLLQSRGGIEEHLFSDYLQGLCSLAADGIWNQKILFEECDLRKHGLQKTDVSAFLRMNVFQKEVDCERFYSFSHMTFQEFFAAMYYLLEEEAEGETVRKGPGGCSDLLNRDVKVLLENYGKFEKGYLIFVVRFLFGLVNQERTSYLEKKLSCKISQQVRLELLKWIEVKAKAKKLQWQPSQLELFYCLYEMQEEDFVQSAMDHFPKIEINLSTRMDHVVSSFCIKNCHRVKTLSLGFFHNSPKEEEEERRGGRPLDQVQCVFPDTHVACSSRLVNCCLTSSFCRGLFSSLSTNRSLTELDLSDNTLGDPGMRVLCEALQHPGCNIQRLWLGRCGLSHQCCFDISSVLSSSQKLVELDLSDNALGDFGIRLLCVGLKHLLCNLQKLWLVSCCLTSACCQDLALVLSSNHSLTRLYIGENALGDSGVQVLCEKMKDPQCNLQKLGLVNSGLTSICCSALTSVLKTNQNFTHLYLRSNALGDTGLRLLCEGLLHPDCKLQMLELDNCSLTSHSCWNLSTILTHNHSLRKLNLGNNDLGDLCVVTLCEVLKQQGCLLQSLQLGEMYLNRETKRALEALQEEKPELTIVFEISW

Oc1c(I)cc(Cl)c2cccnc12 [CQ, 5-chloro-7-iodo-8-hydroxyquinoline]
DARTS (BMDM lysates, CQ 15 μM) and CETSA (BMDMs) (NLRP3): pre-incubation of CQ with BMDM cell lysates attenuated pronase-induced proteolysis of NLRP3 | Kd [1]: 9.93 µM

Reference: publication PMC11788862 (Journal of Pharmaceutical Analysis, 2024)
